Experimental data published in US20260200920A1, “SUBSTITUTED AMINOPYRIDINE COMPOUNDS FOR USE AS AKT1 INHIBITORS” (Atavistik Bio, Inc., priority 2023, published 2026).

Experiments:
[1] = target: T1, human recombinant kinase full-length AKT1 E17K (Homo sapiens, UniProt P31749, E17K); test: AKT1 E17K kinase assay (TR-FRET, Lance); assay type: biochemical; conditions: 0.6 nM AKT1 E17K, 50 nM Ulight-CREBtide, either 50 μM ATP or 2 mM ATP, 60 min at RT
T1 construct: Purified human recombinant kinase full-length AKT1 E17K was expressed in insect cells; made in house; host or cells: insect cells
In short: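 IC50 came from a 10-point, 4-parameter fit of the 665/620 TR-FRET ratio read with Eu-anti-phospho-CREB (Ser133). Reaction at RT for 60 min after 15 min compound preincubation, using 0.6 nM PDPK1-activated full-length AKT1 E17K (insect-cell), 50 nM Ulight-CREBtide, ATP at 50 μM or 2 mM, HEPES pH 7.5, 1% DMSO.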

[2] = target: T2, human recombinant kinase full-length wildtype AKT1 (Homo sapiens, UniProt P31749); test: AKT1 kinase assay (wildtype, TR-FRET, Lance); assay type: biochemical; conditions: 0.6 nM wildtype AKT1, 50 nM Ulight-CREBtide, either 50 μM ATP or 2 mM ATP, 60 min at RT
T2 construct: Purified human recombinant kinase full-length wildtype AKT1 was expressed in insect cells; made in house; host or cells: insect cells
In short: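 TR-FRET 665/620 ratio quantified phospho-CREBtide formed by PDPK1-activated full-length human AKT1 (0.6 nM, insect-cell-derived) over 60 min at RT with 50 nM ULight-CREBtide and either 50 μM or 2 mM ATP. Compounds were preincubated 15 min with enzyme; IC50 came from 4-parameter fits of 10-point duplicates.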

T2 sequence (P31749 whole entry): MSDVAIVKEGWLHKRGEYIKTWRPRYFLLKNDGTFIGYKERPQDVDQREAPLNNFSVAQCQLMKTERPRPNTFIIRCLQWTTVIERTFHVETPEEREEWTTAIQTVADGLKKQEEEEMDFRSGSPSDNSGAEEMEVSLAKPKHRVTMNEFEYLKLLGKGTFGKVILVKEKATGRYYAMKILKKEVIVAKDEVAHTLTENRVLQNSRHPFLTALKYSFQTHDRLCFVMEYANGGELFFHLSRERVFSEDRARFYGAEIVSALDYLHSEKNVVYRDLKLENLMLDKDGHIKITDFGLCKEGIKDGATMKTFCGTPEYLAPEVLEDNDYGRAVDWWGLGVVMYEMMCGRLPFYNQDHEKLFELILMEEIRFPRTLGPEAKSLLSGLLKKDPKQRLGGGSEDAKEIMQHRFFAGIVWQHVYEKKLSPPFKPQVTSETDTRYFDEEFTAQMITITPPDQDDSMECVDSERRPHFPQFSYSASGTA
T1 sequence (P31749 whole entry E17K): as the sequence (P31749 whole entry) above, with E17K counted along it

| SMILES | IC50 [1] [nM] | IC50 [2] [nM] |
| --- | --- | --- |
| CC1(C)CN(Cc2ccc(-n3c(-c4cccnc4N)nc4ccc(-c5ccccc5)nc43)cc2)CCC1C(=O)O (centres unmarked) [Compound I-85, 1-[[4-[2-(2-amino-3-pyridyl)-5-phenyl-imidazo[4,5-b]pyridin-3-yl]phenyl]methyl]-3,3-dimethyl-piperidine-4-carboxylic acid] | ≥ 2000 | < 20000 |
| C[C@@H]1C[C@H](N(C)Cc2ccc(-n3c(-c4cccnc4N)nc4ccc(-c5ccccc5)nc43)c(F)c2)C[C@H](C)[C@H]1C(=O)O [Compound I-160] | 500 to 2000 | < 20000 |
| CC(C)CN(Cc1ccc(-n2c(-c3cccnc3N)nc3ccc(-c4ccccc4)nc32)cc1)[C@H]1CC[C@H](C(=O)O)CC1 [Compound I-166] | ≥ 2000 | < 20000 |
| Cc1nc(NC(=O)[C@H]2CC[C@H](C(=O)O)CC2)ccc1-n1c(-c2cccnc2N)nc2ccc(-c3cccc(F)c3F)nc21 [Compound I-219] | 500 to 2000 | < 20000 |
| CC(C)[C@@H]([C@H]1CC[C@H](C(=O)O)CC1)N1CC(c2ccc(-n3c(-c4cccnc4N)nc4ccc(-c5ccccc5)nc43)cc2)C1 [Compound I-74, (1S,4r)-4-((S)-1-(3-(4-(2-(2-aminopyridin-3-yl)-5-phenyl-3H-imidazo[4,5-b]pyridin-3-yl)phenyl)azetidin-1-yl)-2-methylpropyl)cyclohexane-1-carboxylic acid] | ≥ 2000 | < 20000 |
| CN(Cc1ccc(-n2c(-c3cccnc3N)nc3ccc(-c4ccccc4)nc32)c(F)c1)[C@H]1CC[C@H](C(=O)O)CC1 [Compound I-164] | 500 to 2000 | < 20000 |
| Nc1ncccc1-c1nc2ccc(-c3ccccc3)nc2n1-c1ccc(C(=O)N[C@H]2CC[C@@H](C(=O)O)CC2)cc1 [Compound I-17, (1s,4s)-4-(4-(2-(2-aminopyridin-3-yl)-5-phenyl-3H-imidazo[4,5-b]pyridin-3-yl)benzamido)cyclohexane-1-carboxylic acid] | 500 to 2000 | < 20000 |
| Nc1ncccc1-c1nc2ccc(-c3ccccc3F)nc2n1-c1ccc(C2CN(CC3CC4CC(C(=O)O)CC4C3)C2)cc1 (centres unmarked) [Compound I-202] | < 500 | < 20000 |
| Cc1nc(NC(=O)[C@H]2CC[C@H](C(=O)O)CC2)ccc1-n1c(-c2cccnc2N)nc2ccc(-c3ccccn3)cc21 [Compound I-130, (1r,4r)-4-((5-(2-(2-aminopyridin-3-yl)-6-(pyridin-2-yl)-1H-benzo[d]imidazol-1-yl)-6-methylpyridin-2-yl)carbamoyl)cyclohexane-1-carboxylic acid] | ≥ 2000 | < 20000 |
| CC(C)N(Cc1ccc(-n2c(-c3cccnc3N)nc3ccc(-c4ccccc4)nc32)cc1)[C@H]1CC[C@H](C(=O)O)CC1 [Compound I-168] | ≥ 2000 | < 20000 |
| C[C@]1(C(=O)O)CC[C@H](CN2CC(c3ccc(-n4c(-c5cccnc5N)nc5ccc(-c6ccccc6)nc54)cc3)C2)CC1 [Compound I-138, (1r,4r)-4-((3-(4-(2-(2-aminopyridin-3-yl)-5-phenyl-3H-imidazo[4,5-b]pyridin-3-yl)phenyl)azetidin-1-yl)methyl)-1-methylcyclohexane-1-carboxylic acid] | < 500 | < 20000 |
| Cc1c(-n2c(-c3cccnc3N)nc3ccc(-c4ccccc4)nc32)ccc(NC(=O)C2CC3(CC(C(=O)O)C3)C2)c1F (centres unmarked) [Compound I-101, 6-((4-(2-(2-aminopyridin-3-yl)-5-phenyl-3H-imidazo[4,5-b]pyridin-3-yl)-2-fluoro-3-methylphenyl)carbamoyl)spiro[3.3]heptane-2-carboxylic acid] | ≥ 2000 | < 20000 |
| Nc1ncccc1-c1nc2ccc(-c3ccccc3)nc2n1-c1ccc(C(=O)N2CCC(C(=O)O)CC2)cc1 [Compound I-20, 1-(4-(2-(2-aminopyridin-3-yl)-5-phenyl-3H-imidazo[4,5-b]pyridin-3-yl)benzoyl)piperidine-4-carboxylic acid] | ≥ 2000 | < 20000 |
| CC1(C)CC(C(=O)O)CCC1CN1CCC(c2ccc(-n3c(-c4cccnc4N)nc4ccc(-c5ccccc5)nc43)cc2)CC1 (centres unmarked) [Compound I-194] | 500 to 2000 | < 20000 |
| Nc1ncccc1-c1nc2ccc(-c3ccccc3)nc2n1-c1ccc(NC(=O)C2CCC(C(=O)O)C2)nc1 (centres unmarked) [Compound I-8, 3-((5-(2-(2-aminopyridin-3-yl)-5-phenyl-3H-imidazo[4,5-b]pyridin-3-yl)pyridin-2-yl)carbamoyl)cyclopentane-1-carboxylic acid] | 500 to 2000 | < 20000 |
| CN(Cc1ccc(-n2c(-c3cccnc3N)nc3ccc(-c4ccccc4)nc32)cc1)[C@@H]1CC[C@@H](C(=O)O)C1 (stereo in doubt) [Compound I-171] | < 500 | < 20000 |

| SMILES | IC50 [1] [nM] | IC50 [2] [nM] |
| --- | --- | --- |
| CC1(C)C[C@H](CN2CCC(c3ccc(-n4c(-c5cccnc5N)nc5ccc(-c6ccccc6)nc54)cc3)CC2)CC(C)(C)[C@@H]1C(=O)O [Compound I-197] | ≥ 2000 | < 20000 |
| CC(C)(NC1CCC(C(=O)O)CC1)c1ccc(-n2c(-c3cccnc3N)nc3ccc(-c4ccccc4)nc32)cc1 (centres unmarked) [Compound I-89, (1r,4r)-4-((2-(4-(2-(2-aminopyridin-3-yl)-5-phenyl-3H-imidazo[4,5-b]pyridin-3-yl)phenyl)propan-2-yl)amino)cyclohexane-1-carboxylic acid] | ≥ 2000 | < 20000 |
| Nc1ncccc1-c1nc2ccc(-c3ccccc3)nc2n1-c1ccc(NC(=O)C23CCC(C(=O)O)(C2)C3)nc1 [Compound I-9, 4-((5-(2-(2-aminopyridin-3-yl)-5-phenyl-3H-imidazo[4,5-b]pyridin-3-yl)pyridin-2-yl)carbamoyl)bicyclo[2.1.1]hexane-1-carboxylic acid] | 500 to 2000 | < 20000 |
| Cc1nc(NC(=O)C2CCC(C(C)C(=O)O)C2)ccc1-n1c(-c2cccnc2N)nc2ccc(-c3ccccc3)nc21 (centres unmarked) [Compound I-132, 2-(3-((5-(2-(2-aminopyridin-3-yl)-5-phenyl-3H-imidazo[4,5-b]pyridin-3-yl)-6-methylpyridin-2-yl)carbamoyl)cyclopentyl)propanoic acid] | 500 to 2000 | < 20000 |
| Cc1nc(NC(=O)[C@H]2CC[C@H](C(=O)O)CC2)ccc1-n1c(-c2cccnc2N)nc2ccc(-c3ccc(F)cc3)nc21 [Compound I-215] | 500 to 2000 | < 20000 |
| Nc1ncccc1-c1nc2ccc(-c3ccccc3)nc2n1-c1ccc(NC(=O)C2CC3(CC(C(=O)O)C3)C2)nc1 (centres unmarked) [Compound I-112, 6-((5-(2-(2-aminopyridin-3-yl)-5-phenyl-3H-imidazo[4,5-b]pyridin-3-yl)pyridin-2-yl)carbamoyl)spiro[3.3]heptane-2-carboxylic acid] | < 500 | < 20000 |
| Nc1ncccc1-c1nc2ccc(-c3ccccc3F)nc2n1-c1ccc([C@@H]2CCN(C[C@H]3CC[C@H](C(=O)O)CC3)C2)cc1 (single isomer, unassigned) [Compound I-231] | < 500 | < 20000 |
| Cc1nc(NC(=O)[C@H]2CC[C@H](C(=O)O)CC2)ccc1-n1c(-c2cccnc2N)nc2ccc(-c3cccc(F)c3)nc21 [Compound I-214] | < 500 | < 20000 |
| Cc1cc(C2CN(CC3CC4CC(C(=O)O)CC4C3)C2)ccc1-n1c(-c2cccnc2N)nc2ccc(-c3ccccc3F)nc21 (centres unmarked) [Compound I-201] | < 500 | < 20000 |
| Nc1ncccc1-c1nc2ccc(-c3ccccc3)cc2n1-c1ccc(C2CN(C[C@H]3CC[C@H](C(=O)O)CC3)C2)cc1 [Compound I-221, (1r,4r)-4-((3-(4-(2-(2-aminopyridin-3-yl)-6-phenyl-1H-benzo[d]imidazol-1-yl)phenyl)azetidin-1-yl)methyl)cyclohexane-1-carboxylic acid] | 500 to 2000 | < 20000 |
| Nc1ncccc1-c1nc2ccc(-c3ccccc3)nc2n1-c1ccc(N2CCCC(C(=O)O)C2)nc1 (centres unmarked) [Compound I-28, 1-(5-(2-(2-aminopyridin-3-yl)-5-phenyl-3H-imidazo[4,5-b]pyridin-3-yl)pyridin-2-yl)piperidine-3-carboxylic acid] | ≥ 2000 | < 20000 |
| CCN(Cc1ccc(-n2c(-c3cccnc3N)nc3ccc(-c4ccccc4)nc32)cc1)[C@H]1CC[C@H](C(=O)O)CC1 [Compound I-167] | 500 to 2000 | < 20000 |
| CC1(C)C[C@H](C(=O)O)CC[C@@H]1CN1CC(c2ccc(-n3c(-c4cccnc4N)nc4ccc(-c5ccccc5)nc43)cc2)C1 (stereo in doubt) [Compound I-144] | < 500 | < 20000 |
| Nc1ncccc1-c1nc2ccc(-c3ccccc3)nc2n1-c1ccc(NC(=O)[C@H]2CC[C@@H](C(=O)O)CC2)cc1 [Compound I-3, cis-4-[[4-[2-(2-amino-3-pyridyl)-5-phenyl-imidazo[4,5-b]pyridin-3-yl]phenyl]carbamoyl]cyclohexanecarboxylic acid] | < 500 | < 20000 |
| CC(C)(N[C@@H]1CC[C@@H](C(=O)O)C1)c1ccc(-n2c(-c3cccnc3N)nc3ccc(-c4ccccc4)nc32)cc1 [Compound I-87, (1R,3R)-3-((2-(4-(2-(2-aminopyridin-3-yl)-5-phenyl-3H-imidazo[4,5-b]pyridin-3-yl)phenyl)propan-2-yl)amino)cyclopentane-1-carboxylic acid] | ≥ 2000 | < 20000 |
